Results as given in patent US5852014A, “Condensed indole derivatives as 5HT4 -receptor antagonists” (SmithKline Beecham p.l.c., priority 1992, dated 1998).
Where two headings read alike, the source gives them in different places.

Key:
[1] = target: piglet hippocampal 5-HT4 receptors (Sus scrofa, UniProt Q6Q253); test: Binding to piglet hippocampal 5-HT4 receptors (125I-SB-207710); settings: for pKi: inhibition of 125I-SB-207710 binding in hippocampus
[2] = system: large bowel motility and fluid secretion; test: Faecal pellet output and fluid content in conscious fed mice (normal and 5-HTP-treated); assay type: in vivo, mouse
Excerpt: 2) Antagonism in Conscious Fed Mice
A model was developed to examine the effect of 5-HT4 receptor antagonists on large bowel motility (faecal pellet output, FPO) and fluid secretion (pellet wet/dry weight) during `fed` conditions. The antagonists are studied in normal mice (to determine adverse effects, eg constipation)and in mice with functional diarrhoea caused by 5-HTP [Banner S E, Smith M I, Bywater D and Sanger G J (1993), Br J Pharmacol, 110, 17 P, and Banner S E, Smith M I and Sanger G J (1993) Br J Pharmacol; 110, 135 P]. Faecal pellets were collected at 10 min intervals so that their number and wet/dry weights could be determined.

5-HT4 receptor [3] = target: T1, 5-HT4 receptor (Cavia porcellus, UniProt O70528); test: Guinea pig colon: 5-HT-evoked contraction of longitudinal muscle-myenteric plexus preparations
T1 sequence (O70528 whole entry): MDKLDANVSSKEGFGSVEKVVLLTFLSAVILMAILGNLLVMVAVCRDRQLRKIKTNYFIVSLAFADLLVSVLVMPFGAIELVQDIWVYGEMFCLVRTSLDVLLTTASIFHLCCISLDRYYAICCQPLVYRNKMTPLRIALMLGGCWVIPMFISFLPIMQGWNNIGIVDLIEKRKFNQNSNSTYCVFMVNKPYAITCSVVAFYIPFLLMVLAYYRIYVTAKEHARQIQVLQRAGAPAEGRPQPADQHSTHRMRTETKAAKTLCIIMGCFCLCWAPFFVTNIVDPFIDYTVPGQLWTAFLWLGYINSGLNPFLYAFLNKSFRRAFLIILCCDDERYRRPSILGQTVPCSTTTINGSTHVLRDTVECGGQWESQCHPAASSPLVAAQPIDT
Experimental: (§1) In some experiments, this tissue was dosed alternately with an approximately equi-effective concentration of the nicotine receptor stimulant, dimethylphenylpiperazinium (DMPP).

5-HT4 receptors = test: Antagonism of 5-HT-evoked tachycardia in anaesthetised piglets; assay type: in vivo, piglet
Experimental: 5) Antagonism in Anaesthetised Piglets
In these experiments, antagonism is assessed against the 5-HT-evoked tachycardia, a response that is mediated by the 5-HT4 receptors. All experiments were in 2-5 day old piglets in which the vagi were sectioned.

5-HT4 receptor [4] = target: T2, 5-HT4 receptor (Rattus norvegicus, UniProt Q62758); test: Rat oesophagus: relaxation of carbachol-contracted tunica muscularis mucosae
T2 construct: The inner smooth muscle tube of the muscularis mucosae is isolated; from tissue; host or cells: rat oesophageal tunica muscularis mucosae
T2 sequence (Q62758 whole entry): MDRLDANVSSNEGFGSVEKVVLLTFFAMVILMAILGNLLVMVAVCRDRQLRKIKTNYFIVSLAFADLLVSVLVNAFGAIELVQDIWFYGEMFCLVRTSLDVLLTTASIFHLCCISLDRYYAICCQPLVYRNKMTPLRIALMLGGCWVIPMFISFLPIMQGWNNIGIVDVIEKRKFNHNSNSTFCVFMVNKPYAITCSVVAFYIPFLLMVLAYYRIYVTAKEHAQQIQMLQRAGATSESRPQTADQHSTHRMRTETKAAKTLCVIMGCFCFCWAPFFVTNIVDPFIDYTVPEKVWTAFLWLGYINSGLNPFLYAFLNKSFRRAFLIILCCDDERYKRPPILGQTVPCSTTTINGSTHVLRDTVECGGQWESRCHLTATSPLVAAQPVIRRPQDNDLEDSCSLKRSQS
Excerpt: Rat oesophageal tunica muscularis mucosae is set up according to Baxter et. al. Naunyn-Schmiedeberg's Arch. Pharmacol., 343, 439-446 (1991). […] In contrast to the guinea-pig colon model, where the 5-HT4 receptor is neuronally-located, the receptor here is located on the smooth muscle.

5-HT4 receptor [5] = target: T1, 5-HT4 receptor; test: Distension-evoked peristalsis in guinea pig isolated ileum; settings: 5-HT 10^-7 M
Experimental: 1) Distension-Evoked Peristalsis in Guinea Pig Isolated Ileum
The oral end was connected to a Krebs-filled reservoir and the aboral end to a vertical column open to the air. The intraluminal filling pressure (oral end) and peristaltic pressure (aboral end) were monitored. The threshold pressure for peristalsis was determined by raising the reservoir at increments of 0.5 cm H2 O at 1 min intervals until peristalsis occurred.

[6] = system: 5-HT-induced gastric motility; test: 5-HT-induced motility in dog gastric pouch; assay type: in vivo; settings: for ED50: Canis lupus familiaris, read-out: ID50 (contractile response to 5-HT)
Experimental: 4) 5-HT-Induced Motility in Dog Gastric Pouch
Compounds are tested for inhibition in the in vivo method described in "Stimulation of canine motility by BRL 24924, a new gastric prokinetic agent", Bermudez et al, J. Gastrointestinal Motility, 1990, 2(4), 281-286.
Dogs with previously prepared Heidenhain gastric pouches are fasted overnight.

nicotine receptor = test: Guinea pig colon: DMPP-evoked contraction (nicotinic receptor agonist); settings: 10^-5 M
Experimental: as §1

5-HT1D = test: Receptor binding studies: 5-HT1D
Alpha1 = test: Receptor binding studies: Alpha1
anxiolytic activity = test: Social interaction test in rats; assay type: in vivo, rat; settings: 0.01, 1, 10 mg.kg^-1
Experimental: IN VIVO TESTING FOR ANXIOLYTIC ACTIVITY
Social Interaction Test in Rats
Rats (male, Sprague Dawleys, Charles River, 250-300 g) are housed in groups of eight in a holding room for 5 days. They are then housed singly in a room adjacent to the experimental room for 4 days prior to the experimental day. On the experimental day rats are administered vehicle, test compound or a benzodiazepine anxiolytic, chlordiazepoxide, p.o. in pairs (n=8-16), at 15 minute intervals beginning at 10.00 a.m. […] The box is made of white perspex 54 cm×37 cm×26 cm with a transparent perspex front side and no lid. The floor is divided up into 24 squares and the box is brightly lit (115 lux). Active social interactive behaviours (grooming, sniffing, climbing over or under, following, biting, mounting and boxing) are scored blind for the next 15 min by remote video monitoring to give total interaction scores. The number of squares crossed by each rat is also scored and summed. After the end of each test the box is carefully wiped.

5-HT4 receptor [7] = target: 5-HT4 receptor (Sus scrofa, UniProt Q6Q253); test: Piglet atria spontaneous beating screen
Sequence of 5-HT4 receptor (Sus scrofa, UniProt Q6Q253) (Q6Q253 1-402): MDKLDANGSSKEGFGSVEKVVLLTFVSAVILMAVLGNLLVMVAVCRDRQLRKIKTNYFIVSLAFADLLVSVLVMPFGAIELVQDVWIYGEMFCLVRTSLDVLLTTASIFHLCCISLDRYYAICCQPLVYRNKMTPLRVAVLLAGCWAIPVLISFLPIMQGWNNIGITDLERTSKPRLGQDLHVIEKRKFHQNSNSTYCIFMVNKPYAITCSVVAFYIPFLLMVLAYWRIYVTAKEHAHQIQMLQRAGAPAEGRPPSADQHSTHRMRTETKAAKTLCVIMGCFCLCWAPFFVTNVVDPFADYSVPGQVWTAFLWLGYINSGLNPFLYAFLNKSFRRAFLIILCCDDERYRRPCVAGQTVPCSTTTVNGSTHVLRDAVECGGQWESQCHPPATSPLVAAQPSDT
Experimental: Compounds are tested in the piglet atria spontaneous beating screen (Naunyn-Schmiedeberg's Arch. Pharmacol 342, 619-622).

5-HT4 receptor [8] = target: T1, 5-HT4 receptor
Experimental: Male guinea-pigs, weighing 250-400 g are used. Longitudinal muscle-myenteric plexus preparations, approximately 3 cm long, are obtained from the distal colon region. These are suspended under a 0.5 g load in isolated tissue baths containing Krebs solution bubbled with 5% CO2 in O2 and maintained at 37° C. In all experiments, the Krebs solution also contains methiothepin 10^-7 M and granisetron 10^-6 M to block effects at 5-HT1, 5-HT2 and 5-HT3 receptors.

Sequence of piglet hippocampal 5-HT4 receptors (Q6Q253 1-402): as above

SMILES: NCCc1c[nH]c2ccc(O)cc12 [5-HT, 5-hydroxytryptamine]
- pKi [1]: 6.6±0.1

SMILES: NC(Cc1c[nH]c2ccc(O)cc12)C(=O)O (stereo not shown) [5-HTP, reference compound]
- effect of 5-HTP on FPO ([2]; 10 mgkg^-1 s.c.): increased FPO above control levels
- time of maximum effect of 5-HTP ([2]; 10 mgkg^-1 s.c.): 20 min
- effect of 5-HTP on faecal output ([2]; higher doses than 10 mg kg^-1 s.c.): evoked watery diarrhoea and unformed faecal output

SMILES: CCCCN1CCC(COC(=O)c2c3n(c4ccccc24)CCCO3)CC1 [E1, (1-^n Butyl-4-piperidyl)methyl-3,4-dihydro-2 H-[1,3]oxazino[3,2-a]indole-10-Carboxylate]
- 5-HT4 receptor antagonist activity (in words) (5-HT4 receptor [3]; Y is O): particularly good activity

SMILES: O=C(OCC1CCN2CCCCC2C1)c1c2n(c3ccccc13)CCCO2 (stereo not shown) [E2, eq-Quinolizidin-2-ylmethyl-3,4-dihydro-2 H-[1,3]oxazino[3,2-a]indole-10-Carboxylate]
- 5-HT4 receptor antagonist activity (in words) (5-HT4 receptor [3]; Y is O): particularly good activity

SMILES: CCCCN1CCC(CNC(=O)c2c3n(c4ccccc24)CCCO3)CC1 [E3, N-[(1-^n Butyl-4-piperidyl)methyl]-3,4-dihydro-2 H-[1,3]oxazino[3,2-a]indole-10-Carboxamide]
- 5-HT4 receptor antagonist activity (in words) (5-HT4 receptor [3]; Y is NH): particularly good activity

SMILES: O=C(OCCN1CCCCC1)c1c2n(c3ccccc13)CCCO2 [E4, 2-(1-Piperidyl)ethyl 3,4-dihydro-2 H-[1,3]oxazino[3,2-a]indole-10-Carboxylate]
- 5-HT4 receptor antagonist activity (in words) (5-HT4 receptor [3]; Y is O): particularly good activity

SMILES: CCCCN1CCC(COC(=O)c2c3n(c4ccccc24)CCO3)CC1 [E6, (1-^n Butyl-4-piperidyl)methyl-2,3-dihydrooxazolo[3,2-a]indole-9-Carboxylate]
- 5-HT4 receptor antagonist activity (in words) (5-HT4 receptor [3]; Y is O): particularly good activity

SMILES: CCCCN1CCC(COC(=O)c2c3n(c4ccccc24)CCCS3)CC1 [E8, (1-^n Butyl-4-piperidyl)methyl-3,4-dihydro-2 H-[1,3]thiazino[3,2-a]indole-10-Carboxylate]
- 5-HT4 receptor antagonist activity (in words) (5-HT4 receptor [3]; Y is O): particularly good activity

SMILES: O=C(OCC1CCN(Cc2ccccc2)CC1)c1c2n(c3ccccc13)CCCO2 [E15, (1-Benzyl-4-piperidyl)methyl-3,4-dihydro-2 H-[1,3]oxazino[3,2-a]indole-10-Carboxylate]
- 5-HT4 receptor antagonist activity (in words) (5-HT4 receptor [3]; Y is O): particularly good activity

SMILES: O=C(NCC1CCN(Cc2ccccc2)CC1)c1c2n(c3ccccc13)CCCO2 [E20, N-[(1-Benzyl-4-piperidyl)methy] 3,4-dihydro-2 H-[1,3]oxazino[3,2-a]indole-10-Carboxamide]
- 5-HT4 receptor antagonist activity (in words) (5-HT4 receptor [3]; Y is NH): particularly good activity

SMILES: O=C(NCC1CCN(CC2CCCCC2)CC1)c1c2n(c3ccccc13)CCCO2 [E23, N-[(1-Cyclohexylmethyl-4-piperidyl)methyl] 3,4-dihydro-2 H-[1,3]oxazino[3,2-a]indole-10-Carboxamide]
- 5-HT4 receptor antagonist activity (in words) (5-HT4 receptor [3]; Y is NH): particularly good activity

SMILES: CCCCN1CCC(COC(=O)c2c3n(c4ccc(F)cc24)CCCO3)CC1 [E27, (1-^n Butyl-4-piperidyl)methyl 8-fluoro-3,4-dihydro-2 H-[1,3]oxazino[3,2-a]indole-10-Carboxylate]
- 5-HT4 receptor antagonist activity (in words) (5-HT4 receptor [3]; Y is O): particularly good activity

SMILES: CCCCN1CCC(CNC(=O)c2c3n(c4ccc(F)cc24)CCCO3)CC1 [E28, N-[(1-^n Butyl-4-piperidyl)methyl] 8-fluoro-3,4-dihydro-2 H-[1,3]oxazino[3,2-a]indole-10-Carboxamide]
- 5-HT4 receptor antagonist activity (in words) (5-HT4 receptor [3]; Y is NH): particularly good activity

SMILES: O=C(NCC1CCN(CCCOc2ccccc2)CC1)c1c2n(c3ccccc13)CCCO2 [E47, N-[(1-(3-Phenoxypropyl)-4-piperidinyl)methyl] 3,4-dihydro-2 H-[1,3]oxazino[3,2-a]indole-10-Carboxamide]
- 5-HT4 receptor antagonist activity (in words) (5-HT4 receptor [3]; Y is NH): particularly good activity

SMILES: CCCCN1CCC(CNC(=O)c2c3n(c4ccccc24)CCCO3)CC1 [SB-207266-A, N-[(1-^n Butyl-4-piperidyl)methyl]-3,4-dihydro-2 H-[1,3]oxazino[3,2-a]indole-10-Carboxamide]
- antagonism of 5-HT-evoked tachycardia (5-HT4 receptors; 0.1, 0.3 or 1.0 ugkg^-1 iv, n=2 each): antagonised the 5-HT-evoked tachycardia in a dose-dependent manner
- recovery from antagonism (5-HT4 receptors; 0.3, 1.0 ugkg^-1 i.v., over the duration of the experiment): incomplete
- antagonism of 5-HT response (in words) (5-HT4 receptor [4]): concentration-dependently acted as a non-surmountable antagonist and reduced the maximum response evoked by 5-HT
- Kb (5-HT4 receptor [4]; from data with the lowest effective concentration, no reliable pA2 estimate possible): ≤ 0.1 nM
- duration of action ([2]; 100 ug.kg^-1, dosed 2.5 hours before 5-HTP): effective
- duration of action ([2]; 100 ug.kg^-1, pre-dosed 6 hours before 5-HTP): without effect
- effect on 5-HTP-evoked increase in FPO ([2]; 0.1 to 10 ug.kg^-1 s.c., 5-HTP 10 mg kg^-1 s.c.): dose-dependently prevented the 5-HTP-evoked increase in FPO
- effect on fluid secretion evoked by 5-HTP ([2]; 5-HTP 10 mg kg^-1 s.c.): prevented
- effect on watery diarrhoea caused by 5-HTP ([2]; 5-HTP 50 mg.kg^-1): reduce the watery diarrhoea
- effect on the effects of 5-HTP, oral ([2]; 10-1000 ug.kg^-1 po, 30 min prior to 5-HTP): greatly reduced the effects of 5-HTP
- effect on FPO or fluid content in normal mice ([2]; s.c. or po, not pretreated with 5-HTP): did not affect either FPO or their fluid content in normal mice
- preparations in which the sensitising effect of 5-HT was abolished (5-HT4 receptor [5]; 10^-9 M): 3/3
- tissues in which the action of 5-HT was antagonised (5-HT4 receptor [5]; 10^-10 M): 3/4
- tissues in which there was no ability to antagonise the sensitising effect of 5-HT (5-HT4 receptor [5]; 10^-11 M): 4/4
- pKi [1]: 9.48±0.06
- duration of action (in words) ([6]; 1 and 3 ug.kg^-1 iv): variable and apparently reversible
- duration of antagonism ([6]; 10 and 100 ug.kg^-1 iv, longer than the experiment): > 285 min
- ED50 ([6]; iv): 1.3 µg/kg
- ED50 ([6]; po): 9.6 µg/kg
- effect on basal motility ([6]; any dose, iv and po): no effect
- effect on DMPP-evoked contractions (nicotine receptor): unaffected
- pKd (5-HT1D): < 5.00
- pKd (Alpha1): < 5.52
- locomotion during the test (anxiolytic activity): not accompanied by any alteration in locomotion
- total interaction scores (anxiolytic activity; 1 h after administration): Significantly increased total interaction scores
- Kb (5-HT4 receptor [3]): 0.0398 nM
- effect on maximum response to 5-HT (5-HT4 receptor [3]; 3×10^-8 M and above): the maximum response to 5-HT was reduced in a concentration-dependent manner
- effect on 5-HT concentration-response curve (5-HT4 receptor [3]; 10^-10-10^-8 M, n=6): parallel rightward shift of the 5-HT curve with no effect on the maximum response
- slope (pA2) (5-HT4 receptor [3]; 10^-10-10^-8 M, n=6): not significantly different from unity
- recovery time of responses to 5-HT (5-HT4 receptor [3]; at the highest concentrations (which reduce maximum 5-HT-evoked contractions), washout): ≤ 90 min
- reversibility of antagonism (5-HT4 receptor [3]; upon washout): could be reversed upon washout
- effect on 5-HT curve (5-HT4 receptor [7]; 10^-7 M): shifted the curve to the right with an apparent reduction in the maximum response
- estimated pKb (-log10 Kb) (5-HT4 receptor [7]; n=2): 10.1
- effect on BIMU 1 concentration-response (5-HT4 receptor [8]): reduced the maximum response to BIMU 1, without causing a prior right-ward shift in the concentration-response curve

SMILES: CCCCN1CCC(COC(=O)c2cc(I)c(N)c3c2OCCO3)CC1 [SB-207710]
- Bmax ([1]; piglet hippocampal membranes, n=4): 16±3 fmol/mg protein

SMILES: CN1C2CCCC1CC(NC(=O)c1nn(C)c3ccccc13)C2 (stereo not shown) [granisetron]
- pKi [1]: below 5
